Reference: patent US20220296597A1, “USE OF A NEUTROPHIL ELASTASE INHIBITOR IN LUNG DISEASE” (pH Pharma Co., Ltd., priority 2019, published 2022)
Where two headings read alike, the source gives them in different places.

How the values were obtained:
[1] = Solubility of the drug substance; assay type: physicochemical
[2] = healthy subjects, cited from earlier work
[3] = Example 2 Phase 1 single-ascending dose study in healthy subjects; assay type: in vivo, human
Source text: Following Screening, subjects received single doses of study drug and were monitored during an in-clinic period and an out-patient follow-up period. Subjects were confined to the study site for Study Days −2 through 7 to collect PK and safety assessments. Following discharge from the study site on Study Day 7, subjects returned to the study site on Study Days 14, 21, 28, and 35.

[4] = non-CF BE patients, 28 days, cited from earlier work
[5] = Hygroscopicity of the drug substance; assay type: physicochemical; details: normal storage conditions

In the case of `CC1=C(C#N)[C@@H](c2ccc(C#N)cc2S(C)(=O)=O)N(C)C(=O)N1c1cccc(C(F)(F)F)c1` [Compound 1, (4S)-4-[4-cyano-2-(methylsulfonyl)phenyl]-3,6-dimethyl-2-oxo-1-[3-(trifluoromethyl)phenyl]-1,2,3,4-tetrahydropyrimidine-5-carbonitrile], the solubility in acetone ([1]; acetone) is reported as “soluble”, the solubility in ethanol ([1]; ethanol) is reported as “very slightly soluble” and the solubility in water ([1]; water) is reported as “practically insoluble”. For the same compound, the “study drug-induced laboratory or ECG abnormalities” value ([2]; Phase 1 studies) was “No safety signals”, the safety and tolerability ([2]; single and repeated doses up to 1 mg for up to 14 days) was “safe and well tolerated” and the serious adverse events ([2]; three Phase 1 studies) was “no serious AEs (SAEs) were reported”. For the same compound, the subjects with headache ([3]; 36 received Compound 1, single doses 1 to 40 mg) was “one”, the “AE rate compared with placebo” value ([3]; single doses 1 to 40 mg) was “somewhat lower than that in the control (placebo) subjects” and the “effects on laboratory safety evaluations (clinical chemistry and hematology)” value ([3]; single doses 1 to 40 mg) was “no clear effects”. For the same compound, the “exposure (AUC and Cmax) with dose” value ([3]; single doses 1 to 40 mg) was “proportional increases”, the “serious AEs” value ([3]; single doses 1 to 40 mg) was “no serious AEs” and the safety and tolerability ([4]; 1.0 mg oral IR tablet) was “generally safe and well tolerated”. For the same compound, the “SAEs attributed to the drug” value ([4]; 1.0 mg oral) was “no SAEs were attributed by the investigator to the drug”, the “study drug-induced laboratory parameter or ECG effects” value ([4]; 1.0 mg oral) was “No safety signals” and the hygroscopicity [5] was “not hygroscopic”.
